What was measured:
[1] = Electron donation by pre-illuminated LEAT protein (NAD+/NADP+ reduction); type: biochemical
Method: FIG. 1. The effects of light on NAD^+ or NAPD^+ reduction by YFP.
It was reported that proteins such as GFP can function as electron donor to reduce the oxidized small compounds such as NAD^+, potassium ferricyanide, and some proteins such as cytochrome c, and FAD-containing proteins (Bogdanov A. M. et al, 2009, Nature Chemical Biology. 5:459-461), The invertors used E. coli to express and purify recombinant proteins. […] Quinone reduction under light was analyzed by monitoring the decrease of absorption at 436 nm.

[2] = In vitro H2O hydrolysis and oxygen evolution catalyzed by LEAT protein under light; type: biochemical; parameters: key to O2 evolution activity: +: similar O2 evolution activity as that of YFP; ++: higher O2 evolution activity than that of YFP by at least one order of magnitude; weak: lower activity than that of YFP by at least one order of magnitude; conditions: for O2 evolution activity: water hydrolysis and O2 evolution under light, relative to YFP
Method: 1.85 ml of 50 mM phosphate buffer (pH6.5) was added in the reaction vessel of Clark-type oxygen electrode, then LEAT proteins (at a final concentration of 0.02-1 μg/ml) and 400 μM 2,3,5-trimethyl-1,4-benzoquinone (TMBQ) or other quinones were sequentially added into the buffer in dark. The oxygen evolution rate was measured under the light with corresponding excitation wave length for LEAT proteins and light intensity at 1-2 μmol m^−2 s^−1.

[3] = system: Brassica; test: Growth, biomass and yield of transgenic Brassica; type: in vivo, Brassica napus L.; conditions: T1 transgenic Brassica, vegetative stage
Text: FIG. 14. (A) WT, empty vector control (pHB) and mCherry transgenic Brassica (L1-L3) were germinated and grown for one week in the phytotron under white light (PPFD:250 μmol m^−2s^−1). Then the plants were moved and grown under white light, green light (PFD: 60 μmol m^−2s^−1) or red+blue light (red light PFD; 60 μmol m^−2s^−1, blue light PFD; 10 μmol m^−2s^−1) for another 3 weeks and photos were taken, (B) Comparison of the fresh weights and dry weights of WT and mCherry transgenic Brassica grown under white light, green light or red+blue light for four weeks. Values in the figures are means±SD, for WT, n=10, for transgenic plant transformed with empty vector control pHB and mCherry, data were the averages of three independent lines and 10 plants for each line. **p≦0.01. (C) Net photosynthetic rate of WT and mCherry transgenic Brassica measured under different light qualities. Nine-week-old WT and mCherry transgenic Brassica grown in the phytotron (PPFD: 250 μmol m^−2s^−1) were transferred and treated with different qualities of light for 4 days and net photosynthetic rate was measured. (D) Net photosynthetic rate of WT and mCherry transgenic Brassica grow in the natural field measured under different PPFD as light source. Net photosynthetic rate was measured in situ between 10:00 am and 12:00 pm. […] FIG. 15. (A) Measurement of the fresh weight and dry weight per plant of 7-week-old WT and mCherry transgenic Brassica plants grown in the natural field conditions. Values in the figures are means±SD, n=10. *p≦0.05, **p≦0.01. (B) Comparison of the plant size, silique size, seed size, grain yield per plant and 1000-seed weight at the harvesting time. Values in the figures are means±SD, n=10. *p≦0.05, **p≦0.01. Wild type (WT), transgenic Brassica with empty vector (pHB) and mCherry transgenic Brassica (L1-L3) were germinated in the phytotron under white light (light intensity: 250 μmol m^−2s^−1) for 1 week. Then the plants were transferred and continued to grow under white light, green light (light intensity: 60 μmol m^−2s^−1), red+blue light (intensity of red light: 60 μmol m^−2s^−1; intensity of blue light: 10 μmol m^−2s^−1). The […] were taken three weeks after transfer.

Row | Substance | O2 evolution activity [2] | plant growth vs WT [3] | also measured
1 | YFP: yellow fluorescent protein, amino acid sequence SEQ ID NO: 8 | + |  | function as electron donor under light [1]: cannot continuously provide electrons under light; water photohydrolysis and O2 evolution activity under light ([2]; TMBQ substituted with DQ or UQ): does not have water photohydrolysis and O2 evolution activity; activity of water hydrolysis among the quinones tested (order) ([2]; different quinones, under light): TMBQ>DMBQ2>MBQ>DMBQ1
2 | eqFP611: fluorescent protein from Entacmaea quadricolor (AY130757), SEQ ID NO: 30 | + |  | 
3 | mCherrymu3: mCherry mutant S151C S152C K167M, SEQ ID NO: 22 |  | grow better than WT | O2 evolution rate, increase ([2]; vs non-mutated protein, under light): 6 folds
4 | mCherrymu4: mCherry mutant S151C S152C K167M I202A, SEQ ID NO: 24 |  | grow better than WT | 
5 | mCherrymu5: mCherry mutant S151C S152C H166N K167M I202A, SEQ ID NO: 26 |  | grow better than WT | 
